In PubChem BioAssay (NCI) one finds GI50 and TGI data, which are given here for 8 molecules.

Molecules are shown by their SMILES.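 Assay format: 96-well plates, 48-hour exposure. Abbreviation: GI50, concentration required for 50% inhibition of growth. TGI is the concentration that stops growth completely.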

Test systems include SR leukemia; NCI-H226 lung; COLO 205 colon; HCT-116 colon; A549 NSCLC; UO-31 renal; 786-0 renal; SF-539 CNS; SF-268 CNS; RXF 393 renal.
What all share (assay): NCI-60 cell line screen, 48 h

Take `CN(C)C(=O)c1cc2cnc(Nc3ccc(-c4csc5c(=O)cc(N6CCNCC6)oc45)cc3)nc2n1C1CCCC1`: the GI50 with SR leukemia was 0.231 µM; in the assay on NCI-H226 lung, 1.61 µM; in the assay on COLO 205 colon, 0.671 µM; with HCT-116 colon, 0.318 µM; in the assay on A549 NSCLC it was 1.16 µM; with UO-31 renal, 1.64 µM. The GI50 with 786-0 renal was 0.535 µM; in the assay on SF-539 CNS, 1.15 µM; in the assay with SF-268 CNS it was 0.638 µM; with RXF 393 renal, 0.27 µM. Also, the TGI in the assay on SR leukemia came out at 2.44 µM; in the assay with NCI-H226 lung, 15.3 µM; in the assay on COLO 205 colon, 4.64 µM; in the assay on HCT-116 colon, 1.4 µM; in the assay on A549 NSCLC it was 3.81 µM; with UO-31 renal it was 4.58 µM. Also, the TGI in the assay on 786-0 renal is 1.93 µM; in the assay with SF-539 CNS it was 2.43 µM; in the assay on SF-268 CNS, 4.09 µM; in the assay with RXF 393 renal, 1.03 µM.
`Cc1cc2c3ccccc3ccc2[n+]2ccccc12`: the GI50 in the assay with SR leukemia is 2.25 µM; with NCI-H226 lung, 3.14 µM; in the assay with COLO 205 colon, 1.95 µM; with HCT-116 colon it was 7.29 µM; with A549 NSCLC it was 0.628 µM; in the assay with UO-31 renal, 3.73 µM. Also, the GI50 is 6.11 µM with 786-0 renal, 3.47 µM in the assay on SF-539 CNS, 0.839 µM with SF-268 CNS and 14.3 µM with RXF 393 renal. The TGI in the assay with SR leukemia is 12.9 µM; in the assay on NCI-H226 lung it was 23.7 µM; in the assay on COLO 205 colon, 8.31 µM; in the assay with HCT-116 colon it was 44.4 µM; with A549 NSCLC, above 76.9 µM; in the assay with UO-31 renal it was above 100 µM. Further, the TGI in the assay with 786-0 renal is above 69.1 µM; in the assay on SF-539 CNS, 17 µM; in the assay on SF-268 CNS, 3.92 µM; in the assay on RXF 393 renal, above 84.4 µM.
Take `CC1(O)CC2(O)C=CC3=C(C(=O)c4cccc(O)c4C3=O)C2(O)C(=O)C1O` (stereo not given): the TGI with SR leukemia amounted to 18.1 µM; in the assay on NCI-H226 lung it was 17.6 µM; with COLO 205 colon it was 0.436 µM; in the assay on HCT-116 colon, 2.05 µM; in the assay on A549 NSCLC, 25.3 µM; in the assay with UO-31 renal, 4 µM. The TGI with 786-0 renal worked out at 3.84 µM; in the assay with SF-539 CNS it was 10 µM; with SF-268 CNS, 17.1 µM; in the assay with RXF 393 renal, 2.13 µM.
In the case of `COC(=O)c1ccc2c(c1)C(=O)c1c-2n(CCCN)c(=O)c2cc([N+](=O)[O-])ccc12`, the GI50 in the assay with SR leukemia was below 0.01 µM; in the assay on NCI-H226 lung, 0.102 µM; with COLO 205 colon it was 0.0737 µM; in the assay on HCT-116 colon, 0.0337 µM; in the assay on A549 NSCLC, below 0.03 µM; with UO-31 renal, below 0.0137 µM. The GI50 in the assay on 786-0 renal is below 0.025 µM; in the assay on SF-539 CNS, below 0.0196 µM; with SF-268 CNS, below 0.0177 µM; in the assay with RXF 393 renal, below 0.0345 µM. Besides, the TGI is 0.367 µM in the assay on SR leukemia; 1.67 µM in the assay on NCI-H226 lung; 1.69 µM in the assay with COLO 205 colon; 0.959 µM with HCT-116 colon; 0.894 µM in the assay with A549 NSCLC; below 0.0405 µM in the assay on UO-31 renal. Further, the TGI is 0.302 µM in the assay with 786-0 renal, 0.21 µM in the assay on SF-539 CNS, 1.4 µM in the assay on SF-268 CNS and 0.118 µM with RXF 393 renal.
`O=C(OCC1OC(OC(=O)c2cc(O)c(O)c(OC(=O)c3cc(O)c(O)c(O)c3)c2)C(OC(=O)c2cc(O)c(O)c(OC(=O)c3cc(O)c(O)c(O)c3)c2)C(OC(=O)c2cc(O)c(O)c(OC(=O)c3cc(O)c(O)c(O)c3)c2)C1OC(=O)c1cc(O)c(O)c(OC(=O)c2cc(O)c(O)c(O)c2)c1)c1cc(O)c(O)c(OC(=O)c2cc(O)c(O)c(O)c2)c1` (stereo not given): the GI50 in the assay with SR leukemia is 21 µM; in the assay with NCI-H226 lung, 16.6 µM; with COLO 205 colon, 14.5 µM; in the assay with HCT-116 colon, 21.9 µM; with A549 NSCLC, 20.7 µM; in the assay on UO-31 renal it was 17.4 µM. Also, the GI50 in the assay with 786-0 renal is 46.9 µM; with SF-539 CNS it was 11.7 µM; in the assay on SF-268 CNS it was 7.21 µM; with RXF 393 renal, 30.3 µM. The TGI in the assay on SR leukemia, in the assay with NCI-H226 lung, with COLO 205 colon, in the assay on HCT-116 colon, in the assay with A549 NSCLC and in the assay with UO-31 renal was above 50 µM throughout. The TGI in the assay on 786-0 renal is above 50 µM; with SF-539 CNS, 35.1 µM; in the assay on SF-268 CNS it was 31.3 µM; in the assay with RXF 393 renal it was above 50 µM.
Take `CC(=O)OC1CCC2(C)C(CCC3C4CC=C(C(C)=O)C4(C)OC(=O)CC32)C1` (stereo not given): the GI50 with SR leukemia is 0.382 µM; in the assay on NCI-H226 lung, 1.95 µM; in the assay on COLO 205 colon, 1.64 µM; with HCT-116 colon, 1.13 µM; in the assay on A549 NSCLC it was 7.22 µM; in the assay on UO-31 renal it was 2.05 µM. Further, the GI50 is 2.52 µM with 786-0 renal, 1.8 µM with SF-539 CNS, 5.2 µM with SF-268 CNS and 1.15 µM in the assay with RXF 393 renal. Also, the TGI in the assay on SR leukemia is 18.2 µM; with NCI-H226 lung, 4.32 µM; in the assay with COLO 205 colon, 3.02 µM; in the assay with HCT-116 colon, 2.62 µM; with A549 NSCLC, 23.1 µM; with UO-31 renal, 7.89 µM. For the same molecule, the TGI was determined as 6.59 µM in the assay on 786-0 renal, 3.55 µM in the assay on SF-539 CNS, 17.8 µM with SF-268 CNS and 2.51 µM in the assay on RXF 393 renal.
`NCCCC1NC(=O)/C(=C(O)/C=C/C2CCC[C@@H]2CC2SCCS2)C1=O` (stereo not given in full): the TGI with SR leukemia, in the assay on NCI-H226 lung, in the assay on COLO 205 colon, with HCT-116 colon, in the assay on A549 NSCLC and in the assay with UO-31 renal was above 100 µM throughout. Also, the TGI with 786-0 renal, in the assay with SF-539 CNS, with SF-268 CNS and in the assay on RXF 393 renal was above 100 µM each time.
With `C=CC(=O)N1CCC([C@@H]2CCNc3c(C(N)=O)c(-c4ccc(Oc5ccccc5)cc4)nn32)CC1`, the GI50 in the assay on SR leukemia is 23.9 µM; with NCI-H226 lung, 11.9 µM; with COLO 205 colon, 22.1 µM; with HCT-116 colon, 17.1 µM; with A549 NSCLC it was 13.2 µM; in the assay on UO-31 renal it was 2.96 µM. For the same molecule, the GI50 with 786-0 renal is 12.9 µM; in the assay on SF-539 CNS it was 16.8 µM; with SF-268 CNS, 9.07 µM; with RXF 393 renal it was 9.05 µM. Also, the TGI in the assay on SR leukemia was above 100 µM; in the assay on NCI-H226 lung it was 42.5 µM; in the assay with COLO 205 colon, above 74.3 µM; in the assay on HCT-116 colon it was 39.3 µM; with A549 NSCLC, above 100 µM; with UO-31 renal it was above 66.4 µM. Also, the TGI was found to be 53.1 µM in the assay on 786-0 renal, 56.4 µM with SF-539 CNS, 34.4 µM in the assay with SF-268 CNS and 25.5 µM in the assay with RXF 393 renal.
